We go through two compounds from patent US9944656B2, “Benzothiazole macrocycles as inhibitors of human immunodeficiency virus replication” (priority 2014, dated 2018).

As usually defined, the EC50 is the midpoint of the concentration-response curve.

The assay relates to recombinant NL-RLuc virus (HIV, NL4-3 derived) in MT-2 cells. Kind of assay: Inhibition of HIV replication (NL-RLuc virus in MT-2 cells, luciferase readout). The class given is cell-based. The note with it: 5 days of incubation, 10% FBS. An excerpt: Inhibition of HIV Replication.
A recombinant NL-RLuc proviral clone was constructed in which a section of the nef gene from NL4-3 was replaced with the Renilla Luciferase gene. This virus is fully infectious and can undergo multiple cycles of replication in cell culture. In addition, the luciferous reporter provides a simple and easy method for quantitating the extent of virus growth and consequently, the antiviral activity of test compounds. The plasmid pNLRLuc contains the proviral NL-Rluc DNA cloned into pUC 18 at the PvuII site. The NL-RLuc virus was prepared by transfection of 293T cells with the plasmid pNLRLuc. Transfections were performed using the LipofectAMINE PLUS kit from Invitrogen (Carlsbad, Calif.) according to the manufacturer and the virus generated was titered in MT-2 cells. For susceptibility analyses, the titrated virus was used to infect MT-2 cells in the presence of compound, and after 5 days of incubation, cells were processed and quantitated for virus growth by the amount of expressed luciferase. […] Luciferase was quantitated using the Dual Luciferase kit from Promega (Madison, Wis.). Susceptibility of viruses to compounds was determined by incubation in the presence of serial dilutions of the compound. […]

On to `Cc1ccc2c(c1)-c1cccc(c1)-c1nc3cc(C)c([C@H](OC(C)(C)C)C(=O)O)c(c3s1)-c1ccc3c(c1)C(CCCC[C@H](C)O2)CCO3` (single isomer, unassigned) [Example 1], for which the half-maximal effective concentration (EC50) amounted to 5.62 µM.

`Cc1ccc2c(c1)-c1cccc(c1)-c1nc3cc(C)c([C@H](OC(C)(C)C)C(=O)O)c(c3s1)-c1ccc3c(c1)C(CCCC[C@H](C)O2)CCO3` (single isomer, unassigned) [Example 2]: the concentration for a half-maximal effect (EC50) is 0.35 µM.
